Results published in the supplement of paper PMC10307832.

Assays:
Test in all cases: relative viability (nuclei count vs DMSO), 5 days (fraction); higher = more cells survive
[1] = compound: CCn1c(-c2nonc2N)nc2c(C#CC(C)(C)O)ncc(OC[C@H]3CCCNC3)c21 + CS(=O)(=O)N1CCN(Cc2cc3nc(-c4cccc5[nH]ncc45)nc(N4CCOCC4)c3s2)CC1 [Pictilisib] (partner 1 µM)
Outline: (§1)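 Relative viability divides the nuclei count in treated wells by that in vehicle wells. Lung cancer cell lines were seeded in 1536-well plates, dosed by pin tool the next day, and fixed and stained after 5 days in one step with final 0.05% Triton X-100, 1% formaldehyde and 1 ug/ml Hoechst. Dosing was a single drug or a fixed anchor-drug dose plus five library-drug doses (not always all listed) in √10 steps, and values are medians of duplicate plates imaged at 4×.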

[2] = compound: CCn1c(-c2nonc2N)nc2c(C#CC(C)(C)O)ncc(OC[C@H]3CCCNC3)c21 + O=C(CCCCCCC(=O)Nc1ccccc1)NO [Vorinostat] (partner 1 µM)
Outline: as §1

[3] = compound: CCn1c(-c2nonc2N)nc2c(C#CC(C)(C)O)ncc(OC[C@H]3CCCNC3)c21 + CC(=O)Nc1cccc(-n2c(=O)n(C3CC3)c(=O)c3c(Nc4ccc(I)cc4F)n(C)c(=O)c(C)c32)c1 [Trametinib] (partner 0.02 µM)
Outline: as §1

BAM7 + Phenformin = compound: CCOC1=CC=CC=C1N=NC2=C(NN(C2=O)C3=NC(=CS3)C4=CC=CC=C4)C [BAM7] + N=C(N)NC(=N)NCCc1ccccc1 [Phenformin] (partner 250 µM)
Outline: as §1

Cell Line	relative viability ([1]; first compound 0.01 µM)	relative viability ([1]; first compound 0.03162 µM)	relative viability ([1]; first compound 0.1 µM)	relative viability ([1]; first compound 0.3162 µM)	relative viability ([1]; first compound 1 µM)	relative viability ([2]; first compound 0.01 µM)	relative viability ([2]; first compound 0.03162 µM)	relative viability ([2]; first compound 0.1 µM)	relative viability ([2]; first compound 0.3162 µM)	relative viability ([2]; first compound 1 µM)	relative viability ([3]; first compound 0.01 µM)	relative viability ([3]; first compound 0.03162 µM)	relative viability ([3]; first compound 0.1 µM)	relative viability ([3]; first compound 0.3162 µM)	relative viability ([3]; first compound 1 µM)	relative viability (BAM7 + Phenformin; first compound 0.5 µM)	relative viability (BAM7 + Phenformin; first compound 5 µM)	relative viability (BAM7 + Phenformin; first compound 15.81 µM)	relative viability (BAM7 + Phenformin; first compound 50 µM)
NCI-H838	0.496	0.44	0.536	0.499	0.553	0.728	0.786	0.722	0.685	0.711	0.534	0.556	0.5	0.453	0.494	0.544	0.572	0.597	0.648
NCI-H1355	0.534	0.361	0.384	0.392	0.472	0.659	0.549	0.617	0.55	0.619	0.464	0.415	0.463	0.386	0.382	0.462	0.421	0.425	0.458
NCI-H1395	0.665	0.536	0.561	0.553	0.57	0.575	0.517	0.597	0.525	0.52	0.947	0.864	0.935	0.705	0.818	0.444	0.522	0.446	0.538
NCI-H1437	0.445	0.522	0.432	0.406	0.378	0.812	0.794	0.955	0.791	0.952	0.483	0.508	0.612	0.515	0.535	0.263	0.23	0.3	0.275
NCI-H1650	0.531	0.602	0.441	0.586	0.562	0.614	0.628	0.642	0.377	0.462	0.548	0.582	0.559	0.51	0.551	0.473	0.501	0.484	0.472
NCI-H1651	0.551	0.564	0.607	0.523	0.639	0.553	0.606	0.613	0.52	0.632	0.83	0.82	0.811	0.783	0.841	0.306	0.303	0.343	0.354
NCI-H1666	0.533	0.395	0.543	0.408	0.392	1.02	1.07	0.986	1	0.942	0.819	0.791	0.861	0.819	0.878	0.592	0.588	0.588	0.563
NCI-H1734	0.456	0.466	0.403	0.423	0.461	0.773	0.857	0.744	0.7	0.74	0.705	0.664	0.678	0.584	0.679	0.41	0.491	0.392	0.401
